Experimental data from US6908927B2, “Pyridopyranoazepine derivatives, their preparation and their therapeutic application” (Sanofi-Synthelabo, priority 1999, dated 2005).
Structures can show the parent of a compound that is named as a salt.

melting point: 170 °C (dec.)
Compound: CCC1c2ncccc2OC2CCN3CCC21C3 (racemic) (as salt: HBr)
